# Earlier results as cited in patent US20060167044A1, “Piperidine derivatives and their use as anti-inflammatory agents” (priority 2004, published 2006).
# System: UUO kidneys
# Conditions: mouse, in vivo
structure (smiles),measurement,value
C[C@@H]1CN(Cc2ccc(F)cc2)CCN1C(=O)COc1ccc(Cl)cc1NC(N)=O [BX 471],CD8+/CCR5+ T cells (FACS analysis),comparable reduction
